These results are taken from article PMC11919252 (eLife, 2025).

Assay [1] concerns hindpaw of WT and DKO mice. Kind of assay: Plasma extravasation, Evans blue assay. The conditions noted are these: for Paw swelling and plasma extravasation (images): injected (left) compared to uninjected (right) paw, WT and DKO mice. Type of assay: in vivo, mouse. How it is done:
(§1) Mice were anesthetized using isoflurane. 200 μl of Evans Blue dye was injected into the mouse’s tail vein. 15 mins later, one hindpaw was injected with an algogen. After a further 30 min, the volume of each paw was measured by displacement using a plethysmometer (Ugo Basile). Both paws were then cut at the ankle and placed in tubes in the oven at 55 °C for 24 hr to dry. 1 ml of formamide was then added to each paw and incubated for 4-6 days at 55 °C to extract the dye from the paw tissue. 50 μl samples of dye-infused formamide from each paw were then dispensed to a 96-well plate in duplicate, along with a range of Evans blue dilutions in formamide to generate a standard curve. The optical density of each sample was then measured using a plate-reader, and the concentration of Evans Blue per paw sample interpolated from the standard curve to generate an index of extravasation in that paw.

Assay [2] relates to hindpaw of WT and DKO mice. Nature of the assay: Hindpaw swelling (edema), plethysmometer. The following applies: for Swelling of the hindpaw, DKO versus WT: observation after injection of CFA, PGE2, AITC or capsaicin. Type of assay: in vivo, mouse. As for the experimental part:
as §1

Assay [3] deals with WT and Tac1::Calca DKO mice. Kind of assay: AITC-evoked licking. The assay is classed as in vivo, mouse. The conditions noted are these: 1% AITC in saline, 20 µl intraplantar; 5 min; WT n=12, DKO n=12. As for the experimental part: (§2) 0.3% capsaicin in 80% saline / 10% Tween-80 /10% ethanol or 1% AITC in saline was injected into the plantar surface of the hind paw. The injected volume for both was 20 µl. Mice were video-taped for 5 min. A blinded observer scored the amount of time in seconds the mouse spent licking the injected paw in a 5-min time period.

Assay [4] deals with CGRP receptor (Calcrl and Ramp1) in CGRP-sniffer HEK293 cells co-cultured with DRG neurons. Kind of assay: Co-culture of DRG neurons and CGRP-sniffer cells (CGRP release). Type of assay: cell-based, mouse.
Assay [5] has as its system WT and Tac1::Calca DKO mice. Nature of the assay: Conditioned taste aversion. The assay is classed as in vivo, mouse. The following applies: LiCl 200 mg/kg; saccharin 15 mM; WT n=7, DKO n=6. As for the experimental part: Mice were single-housed and habituated for 3 days to drink from two glass bottles with stainless-steel ball-bearing spouts. Mice then received 3 days of training, where they were water-deprived for 22 hr followed by 30 min exposure to a single water-containing bottle, then 90 min exposure to both bottles. On the conditioning day, after 22 hr of water deprivation, mice were exposed to a single bottle containing saccharin water (15 mM) for 45 min. Mice were then injected with lithium chloride (200 mg/kg) or PBS, and then given ordinary water for 75 min. The animals were then water deprived for a further 22 hr. On the test day, mice were simultaneously exposed to a bottle containing water and a bottle containing saccharin for 45 min. The volume of each solution consumed was measured by weighing the bottles before and after. To calculate the saccharin preference index of each animal, the volume of saccharin consumed was divided by the total of fluid consumed, with a value less than 0.5 indicating the development of an aversion to saccharin.

Assay [6] has as its system WT and Tac1::Calca DKO mice. Nature of the assay: Inflammatory heat hypersensitivity (Hargreaves). The conditions noted are these: PGE2 20 μl, 500 nM intraplantar; up to 120 min; WT n=10, DKO n=10. Type of assay: in vivo, mouse. How it is done: The radiant heat stimulus was aimed for the centre of the plantar region of the mouse’s hind paw. The active intensity of the low stimulus was 40 intensity units, and of the high stimulus 55. The response latency was recorded for five trials with 10 min breaks in between each trial.
(§3) CFA and PGE2 was purchased from Sigma. 20 μl of CFA was injected into the heel of the hind paw. PGE2 (20 μl, 500 nM) was injected into the plantar surface of the hindpaw, and behavior was assessed over the same time-frame that produces in vivo sensitization of nociceptor responses (up to 120 min). Inflammation-induced hypersensitivity was measured using the Hargreaves and the von Frey, as described above.

The subject of assay [7] is WT and Tac1::Calca DKO mice. Kind of assay: Inflammatory mechanical hypersensitivity (von Frey). The assay is classed as in vivo, mouse. The following applies: PGE2 20 μl, 500 nM intraplantar; up to 120 min; WT n=6, DKO n=6. How it is done:
Punctate mechanical sensitivity was measured using the up-down method of Chaplan to obtain a 50% withdrawal threshold ([Chaplan et al., 1994]). Mice were habituated on a mesh wire stand for 1 hr. A 0.16 g Von Frey hair was applied to the plantar region of the paw for 2 s. A response was recorded when the mouse swiftly lifted its paw in response to the stimulus. […] To calculate the 50% withdrawal threshold, five responses surrounding the 50% threshold were obtained after the first change in response. The pattern of responses was used to calculate the 50% threshold = (10[χ+κδ]/10,000), where χ is the log of the final von Frey filament used, κ=tabular value for the pattern of responses and δ the mean difference between filaments used in log units. The log of the 50% threshold was used to calculate summary and test statistics.
as §3

Assay [8] concerns WT and Tac1::Calca DKO mice. The following applies: 0.6% acetic acid, intraperitoneal, 10 μl/g; 15 min from 5 min after injection; WT n=9, DKO n=7. How it is done: Mice were habituated on a plexiglass stand for 1 hr. 0.6% of acetic acid was injected intraperitoneally at a dose of 10 μl/g weight of the animal. Mice were videotaped for 20 min. The number of writhes was quantified post-hoc by a blinded observer during a 15-min interval between 5 and 20 min after injection.

Assay [9] relates to dorsal horn of WT and DKO mice. Nature of the assay: Capsaicin-evoked dorsal horn Fos staining. The following applies: capsaicin 0.3% hindpaw; WT n=5, DKO n=4. Type of assay: in vivo, mouse. How it is done:
[…]. After 1 week, mice were habituated then the stimulation was performed. For capsaicin-evoked dorsal horn Fos, capsaicin (0.3%) was injected into the right hindpaw of mice in chambers on a plexiglass stand. For Fos elicited by dynamic allodynia stimulation, mice that received a spared nerve injury procedure 3 weeks prior were stimulated with a paint brush while housed on a wire mesh stand (3x10 min stimulation period, with 1-min rest every 10 min). Note that for SNI experiments, the CTB was injected into the contralateral paw, because severing two branches of the sciatic nerve would have prevented efficient CTB transit in the ipsilateral paw. The mice were perfused as above and spinal cords were harvested 75–120 min after stimulation. The sections were incubated in a blocking buffer (5% goat serum; 0.1% Triton X-100; PBS) for 3 hr at room temperature on a shaker. The sections were incubated in 1:1000 rabbit anti Fos primary antibody (Cell Signaling Technology, Phospho-c-Fos (Ser32) (D82C12) XP Rabbit mAb, #5348) at room temperature overnight. […] This ensured Fos activity was measured only in those sections strongly innervated by the hindpaw. The number of Fos-positive nuclei in the dorsal horn were quantified in ImageJ/FIJI software (National Institute of Health) by a blinded observer using a semi-automated procedure. […]

Assay [10] has as its system WT and Tac1::Calca DKO mice. Nature of the assay: Capsaicin-evoked licking. The following applies: 0.3% capsaicin, 20 µl intraplantar, 5 min. Type of assay: in vivo, mouse. How it is done:
as §2

In assay [11] the test system is Substance P receptor (NKR1) in Substance P-sniffer HEK293 cells co-cultured with DRG neurons. Kind of assay: Co-culture of DRG neurons and Substance P-sniffer cells (Substance P release). Type of assay: cell-based, mouse. The following applies: capsaicin 10 μM.
The test system of assay [12] is WT and Tac1::Calca DKO mice. Nature of the assay: Chloroquine-induced itch. Type of assay: in vivo, mouse. The following applies: chloroquine 20 μl of 25 μM intradermal, nape of neck; 15 min; WT n=8, DKO n=11. How it is done:
Hair from the nape of the mouse’s neck was removed 2–3 days prior to behavioral experiments using VEET hair removal cream and the area thoroughly washed and moisturizing cream applied. Mice were habituated to transparent acrylic chambers (10cm x 10cm x 13 cm) 30 min prior to injection. Post habituation, a blinded investigator injected 20 μl of 25 μM Chloroquine diphosphate salt (Sigma-Aldrich: C6628) solution in 0.9% saline intradermally into the nape of the neck using a 31 G insulin syringe. Videos were quantified by a separate blinded investigator with a scratching bout counted each time the mouse attended to the injected area with the hind paw after the paw was removed from the floor or mouth.

SMILES strings stand for the structures. Entries after “also recorded” stand apart in the source; their conditions may differ. Structures can show the parent of a compound that is named as a salt.

For the compound `C=CCN=C=S` [AITC, allyl isothiocyanate], in assay [1], the “Paw swelling and plasma extravasation (images)” value is “both WT and DKO mice show paw swelling and plasma extravasation”. The “Swelling of the hindpaw, DKO versus WT” value in assay [2] is on record as “provoked swelling of the hindpaw of DKO mice to a similar extent as WT mice”. Moreover, the “Licking behavior after AITC” value in assay [3] is “evoked similar licking behavior to capsaicin that was unaffected by peptide deletion”.

As to `CC(C)C[C@H](NC(=O)CNC(=O)[C@H](C)NC(=O)[C@H](CC(C)C)NC(=O)[C@H](CCCNC(=N)N)NC(=O)[C@H](Cc1c[nH]cn1)NC(=O)[C@@H](NC(=O)[C@@H](NC(=O)[C@@H]1CSSC[C@H](NC(=O)[C@@H](N)CO)C(=O)N[C@@H](CC(N)=O)C(=O)N[C@@H]([C@@H](C)O)C(=O)N[C@@H](C)C(=O)N[C@@H]([C@@H](C)O)C(=O)N1)C(C)C)[C@@H](C)O)C(=O)N[C@@H](CC(C)C)C(=O)N[C@@H](CO)C(=O)N[C@@H](CCCNC(=N)N)C(=O)N[C@@H](CO)C(=O)NCC(=O)NCC(=O)N[C@H](C(=O)N[C@H](C(=O)N[C@@H](CCCCN)C(=O)N[C@@H](CC(=O)O)C(=O)N[C@@H](CC(N)=O)C(=O)N[C@@H](Cc1ccccc1)C(=O)N[C@H](C(=O)N1CCC[C@H]1C(=O)N[C@H](C(=O)N[C@@H](CC(N)=O)C(=O)N[C@H](C(=O)NCC(=O)N[C@@H](CO)C(=O)N[C@@H](CCC(=O)O)C(=O)N[C@@H](C)C(=O)N[C@@H](Cc1ccccc1)C(N)=O)C(C)C)[C@@H](C)O)C(C)C)C(C)C)C(C)C` [CGRPα], the “CGRP-sniffer activation by exogenous CGRPα” value in assay [4] (CGRPα saturating concentration 100–1000 nM, co-culture with WT and DKO DRG, n=18 wells per genotype) is reported as “activates CGRP-sniffers in both conditions”.

As for `[Cl-].[Li+]` [LiCl, lithium chloride], the “Conditioned taste aversion to saccharin” value in assay [5] is “pronounced aversion to the usually-preferred saccharin; also recorded: strong and indistinguishable conditioned taste aversion in both WT and DKO mice”.

Consider `CCCCC[C@H](O)/C=C/[C@H]1[C@H](O)CC(=O)[C@@H]1C/C=C\CCCC(=O)O` [PGE2, Prostaglandin E2], for which the “Swelling of the hindpaw, DKO versus WT” value in assay [2] is listed as “provoked swelling of the hindpaw of DKO mice to a similar extent as WT mice”. Besides, the “Heat hypersensitivity, Hargreaves” value in assay [6] is “short-lasting heat and mechanical hypersensitivity to a similar extent in both WT and DKO mice”. For the same compound, in [7], the “Mechanical hypersensitivity, von Frey” value is “short-lasting heat and mechanical hypersensitivity to a similar extent in both WT and DKO mice”.

In the case of `CC(=O)O` [acetic acid], the Writhing behavior entry in [8] is “comparable writhing behavior in both WT and DKO mice”.

With `COc1cc(CNC(=O)CCCC/C=C/C(C)C)ccc1O` [capsaicin], the “Capsaicin-evoked dorsal horn Fos expression” value in assay [9] is “No differences in dorsal horn Fos expression were observed”. Besides, the Plasma extravasation result in assay [1] (capsaicin injection, Evans blue optical density normalized to uninjected paw, WT n=9, DKO n=7) is reported as “plasma extravasation was intact in DKO mice”. Besides, the “Paw swelling and plasma extravasation (images)” value in assay [1] was “both WT and DKO mice show paw swelling and plasma extravasation”. Besides, in [2] (capsaicin injection, 30 min, normalized to uninjected paw, WT n=9, DKO n=7), the “Paw swelling by volume, WT versus DKO” value is “no appreciable differences in capsaicin-induced swelling between WT and DKO mice”. For the same compound, the “Swelling of the hindpaw, DKO versus WT” value in assay [2] was “provoked swelling of the hindpaw of DKO mice to a similar extent as WT mice”. Moreover, in [10] (WT n=9, DKO n=8), the “Licking responses after capsaicin” value is “evoked coping-like licking responses in both genotypes”. Moreover, the “Licking, difference WT versus DKO after capsaicin” value in [10] (unpaired t-test) is listed as “differences did not reach statistical significance”. Besides, the “CGRP-sniffer activity evoked by DKO neurons” value in [4] (capsaicin application, DKO DRG neurons) is reported as “markedly reduced activity”. In addition, the “CGRP-sniffer calcium response evoked by capsaicin” value in assay [4] (capsaicin application, WT DRG neurons) is listed as “strong increases in calcium”. In assay [4] (capsaicin, WT versus DKO DRG co-culture, n=18 wells from 3 mice per genotype), the “CGRP-sniffer GCaMP6s fluorescence” value is recorded as “increase in CGRP-sniffer GCaMP6s fluorescence when cultured with DRGs from WT, but not DKO, mice”. Further, the “Substance P-sniffer GCaMP response evoked by capsaicin” value in [11] (DKO DRG neurons) was “no Substance P-sniffer cell responses”; in assay [11] (control (WT) DRG neurons), “robust GCaMP responses”. Also, in assay [11] (WT versus DKO DRG co-culture, n=12 wells from 2 mice per genotype), the “Substance P-sniffer GCaMP6s fluorescence” value is “increase in Substance P-sniffer GCaMP6s fluorescence when cultured with DRGs from WT, but not DKO, mice”.

Regarding `CCN(CC)CCCC(C)Nc1ccnc2cc(Cl)ccc12` (centres unmarked) [chloroquine, Chloroquine diphosphate salt], the Scratching result in assay [12] was “DKO mice scratched robustly”.
